We go through five molecules from patent US6586460B1, “Heteroarotinoids containing urea or thiourea linker” (The Board of Regents for Oklahoma State University, priority 2001, dated 2003).

The subject of data set [1] is ovarian carcinoma cell line OVCAR-3. As to the kind of experiment: Apoptosis in organotypic culture, TUNNEL assay. The note with it: 1 μM, two weeks, organotypic culture, TUNNEL assay. It is filed as cell-based, human. As to the method: In another experiment, the ovarian carcinoma cell line OVCAR-3 was grown in organotypic culture. After one week, the cultures were treated with 1 μM solution of heteroarotinoids 11, 12, and 13, or with the same volume of DMSO (solvent), for two weeks. Both 9-c-RA and 4-HPR were used as controls. At the end of the time, the cultures were fixed in sectioned, and stained with the TUNNEL assay to detect apoptosing cells. An experienced pathologist quantitated the percent of apoptosing cells by light microscopic examination.

For data set [2], the system named is OVCAR-3. In words: Growth inhibition assay (SRB). It is filed as cell-based, human. The settings on record: for Percentage of growth inhibition, OVCAR−3: 3 days of treatment. An excerpt: (§1) To illustrate the general and useful biological activity of the heteroarotinoids described in this invention, selected compounds were screened for ability to inhibit the growth of three ovarian cancerous cell lines, namely Caov, SKOV, and OVCAR cell lines, three cervical cell lines (Cervix HPV-Wt p53, Cervix HPV-Mut p53, and Cervix HPV-Mut p53), and one vulvar (Vulvar HPV-Mut p53) cell line as shown in Tables I-III. The cell lines and the technology have been previously described [See Journal of Medicinal Chemistry, 1999, Vol. 42, pages 3602-3614 in an article entitled “Synthesis, Structure-Activity Relationships, and RAR γ-Ligand Interactions of Nitrogen Heteroarotinoids” by A. Dhar, S. Liu, J. Klucik, K. D. Berlin, M. M. Madler, S. Lu, R. T. Ivey, D. Zacheis, C. W. Brown, E. C. Nelson, P. J. Birckbichler, and D. M. Benbrook], but the general technique was slightly modified. Cultures of the cancerous cells were plated in volumes of 150 μL in 96-well microtiter plates at concentrations of 2000-4000 cells/well, depending upon the cell line used. Retinoids were added the next day at 4× the concentrations in 50 μL of media resulting in 1, 2, 3, 4, 5, 7, and 10 μM final concentrations of each retinoid. Control cultures were treated with the same volume of DMSO. After 3 days of treatment, the cell density in each well was determined by fixing the cells in trichloroacetic acid followed by staining the cytoplasmic proteins with sulforhoamine B (SRB). After rinsing, the SRB was solubilized in Tris-HCl, and the optical density of each culture was determined with a MR600 microtiter plate reader. Each experiment was performed in triplicate, and the three values of each treatment were averaged. The average OD of the treated cultures was divided by that of the control cultures treated with solvent alone. To determine the percent growth inhibition, this ratio was subtracted from 1 and multiplied by 100. Tables I, II, and III contain representative examples of the inhibition of growth by the inventive heteroarotinoids of the cancerous cell lines investigated at two independent concentrations (1 and 10 μM). As standards for comparison purposes, trans-retinoic acid (t-RA), 9-cis-retinoic acid (9-c-RA), 13-cis-retinoic acid (13-c-RA), and […] (4-HPR) were added in parallel experiments along with the heteroarotinoids and with dimethyl sulfoxide (DMSO) as the solvent. For convenience, the data in Tables II and III are duplicated and ranked according to tumor type.

Data set [3] has as its system CAOV-3. As to the kind of experiment: Growth inhibition assay (SRB). The data set is classed as cell-based. The settings on record: for Percentage of growth inhibition, CAOV−3: 3 days of treatment.
Text: as §1

Data set [4] relates to SW962. In words: Growth inhibition assay (SRB). The data set is classed as cell-based. The note with it: 10 μM, three-day treatment, Table I.
Text: as §1

The subject of data set [5] is C-33A. As to the kind of experiment: Growth inhibition assay (SRB). It is filed as cell-based. The settings on record: 10 μM, three-day treatment, Table I.
Text: as §1

Data set [6] relates to SK-OV-3. As to the kind of experiment: Growth inhibition assay (SRB). It is filed as cell-based. The note with it: for Percentage of growth inhibition, SKOV−3: 3 days of treatment.
Text: as §1

Data set [7] deals with HT-3. As to the kind of experiment: Growth inhibition assay (SRB). It is filed as cell-based. The note with it: 10 μM, three-day treatment, Table I.
Text: as §1

Data set [8] concerns SiHa. As to the kind of experiment: Growth inhibition assay (SRB). The data set is classed as cell-based. The settings on record: 10 μM, three-day treatment, Table I.
Text: as §1

Data set [9] deals with SW962 vulvar carcinoma cultures. As to the kind of experiment: Apoptosis assay, Annexin-V-Flous/propidium iodide flow cytometry. The data set is classed as cell-based. An excerpt:
Optimal chemotherapeutic agents will selectively kill tumor cells by inducing a natural form of cell death which is called “apoptosis”. Toxic agents kill both normal and tumor cells via a nonspecific process known as “necrosis”. To differentiate between apoptosis and necrosis in heteroarotinoid-treated cultures, a flow cytometric assay was employed. Treated cultures were stained with Annexin-V-Flous and propidium iodide, and the intensities of the stains are quantitated with Flow Cytometry. The Annexin-V-Flous binds to phosphatidyl serine on the exterior of apoptosing cells. This assay is specific for apoptosing cells because phosphatidyl serine is normally located on the inner membrane of the cells, a situation whereby the serine derivative cannot be bound by Annexin. However, during apoptosis, phosphatidyl serine is translocated to the outer membrane. The Flous moiety emits a signal that can be detected and quantitated by Flow Cytometry. In contrast, propidium iodide is taken up by necrotic cells that have lost membrane integrity. In this study, t-RA was used as a control for the non-apoptotic retinoids, and 4-HPR was used as a control for the apoptotic retinoids.
In general terms: A flow cytometer gives signals particle by particle.

Data set [10] is described as follows: Liver toxicity (plasma ALT activity, liver sections). The data set is classed as in vivo. The note with it: 10 mg/kg/day p.o. The text has this:
Toxic compounds can induce livers to release enzymes called serum transaminases, such as alanine aminotransferase (ALT). The assay for ALT is the most universally accepted clinical laboratory marker used to evaluate hepatic toxicity induced by pharmaceuticals [See “Serum Transferase Elevations as Indicators or Hepatic Injury Following the Administration of Drugs”, Reg. Tox. Pharm., volume 27, 1998, pp 119-130, by D. E. Amacher]. At the end of the treatment period, blood was drawn from each animal. Plasma was separated by centrifugation and stored at −70° C. The activity of ALT was determined in aliquots of plasma by standard spectrophotometric enzymatic techniques which were based upon the reduction of pyruvate by lactate dehydrogenase [See “Aged Mice are Resistant to the Hepatotoxic Effects of Endotoxin and Galactosamine” in Exp. Mol. Pathology, volume 59, 1993, pp 27-37]. The method measures the disappearance of NADH from time of incubation at 37° C. The activities have been expressed in μm/Liter/min (Table VI). Two different amounts of plasma were utilized in each assay to assure the measurement of the maximum rate.
There were no statistically significant differences between the ALT activities in the different treatment groups (Table VI, t-test: P>0.05). All numbers were in the normal range (63 to 307 μm/Liter/Min) of ALT values for the species of mouse utilized. All liver sections were assessed by an experienced pathologist in a blinded manner. The degree of necrosis was very mild in all animals.

Data set [11] relates to OVCAR-3 cisplatin-resistant ovarian carcinoma cell line. As to the kind of experiment: Cisplatin chemosensitization (MTS assay). The settings on record: for chemosensitization to cisplatin (percent growth, FIG. 2): 1 μM retinoid 3 days before and 3 days after one hour of cisplatin (40 μM or 1 μg/ml). The data set is classed as cell-based, human. The procedure: The compounds of the present invention also find advantage over the standard retinoids, including retinoic acid and 4-HPR as chemosensitization agents. In another study, ovarian carcinoma cultures, including cisplatin-resistant cultures, were trypsinized and plated in microtiter plates at a concentration of 1000 cells per well. A series of natural and synthetic retinoids, including exemplar heteroarotinoids with the novel three atom linker, at a concentration of 5 μM were added to triplicate wells in the microtiter plates twenty-four hours later. The same volume of DMSO used to administer the compounds were added to the control cultures. After three days of treatment, a range of cisplatin concentrations were added to the wells. After one hours of exposure, the media and retinoid drugs were replenished. Cell survival was quantitated using the MTS assay (Promega). […] Thus, the present invention contemplates the process of sensitizing cells to cisplatin therapy and combined cisplatin and radiation therapy using the inventive heteroarotinoids.
In this regard, the cisplatin resistant OVCAR-3 cell line was pre-treated with a concentration of 1 μM of the indicated retinoids for 3 days, and then exposed to cisplatin at the concentration detected in tumors of treated patients (40 μM or 1 μg/ml). […] After one hour of cisplatin exposure, the cisplatin was removed and the cultures were grown in the presence of 1 μM of the indicated retinoids for an additional 3 days. The number of living cells present was then determined using the MTS (3-(4,5-dimethylthiazol-2-yl)-5-(3-carboxymethoxyphenyl)-2H-tetrazolium inner salt) assay (Promega). In the MTS assay, metabolically active cells reduce the MTS compound to an aqueous soluble formazan resulting in an absorbance that can be measured at 490 nm (Promega Technical Bulletin No.169). The optical density at 490 nm (OD490) of the MTS-treated cultures is then determined and used as a measure of the number of living cells in each well. The percent growth is determined by dividing the OD490 of the treated cultures by the OD490 of the untreated control cultures.
On the technique in general: Formazan colour is commonly taken as a measure of viable cells.

The mark [12] stands for this setting: 10 μM, three-day treatment, Table I.

Where “and” joins values, the source holds several entries; their conditions need not be identical. Equal entries are not always repeated.

On to “9-cis-retinoic acid [9-c-RA, reference compound]”, for which the “% APOPTOSIS of OVCAR-3 cells” value in [1] is on record as 80%. The “Percentage of growth inhibition, OVCAR−3” value is 6.2% in data set [2] (1 μM, Table II) and 5.3% in data set [2] (10 μM, Table III). Also, the “Percentage growth inhibition, OVCAR-3 (Ovarian HPV− Mut p53)” value in data set [2] (setting [12]) was 28%. Further, the “Percentage growth inhibition, CAOV-3 (Ovarian HPV− Mut p53)” value in data set [3] (setting [12]) stood at 27%. Also, the “Percentage growth inhibition, SW962 (Vulva HPV− Mut p53)” value in [4] stood at 31%. The “Percentage growth inhibition, C-33A (Cervix HPV− Mut p53)” value in data set [5] is reported as 44%. Besides, the “Percentage of growth inhibition, SKOV−3” value in [6] (1 μM, Table II) was found to be 23.0%; in data set [6] (10 μM, Table III), 16.0%. Moreover, in [6] (setting [12]), the “Percentage growth inhibition, SK-OV-3 (Ovarian HPV− Null p53)” value turned out to be 30%. Besides, the “Percentage growth inhibition, HT-3 (Cervix HPV− Mut p53)” value in data set [7] was 47%. For the same molecule, in data set [8], the “Percentage growth inhibition, SiHa (Cervix HPV+ Wt p53)” value is reported as 24%.
Consider `CC1=C(/C=C/C(C)=C/C=C/C(C)=C/C(=O)Nc2ccc(O)cc2)C(C)(C)CCC1` [4-HPR, 4-hydroxyphenylretinamide, reference compound], for which the “Percentage of induction of apoptosis in SW962 vulvar carcinoma cultures” value in [9] (Days 0) turned out to be 3%; in data set [9] (Days 1), 1.67%; in [9] (Days 2), 3.6%; in data set [9] (Days 3), 17.28%. Also, the “% APOPTOSIS of OVCAR-3 cells” value in data set [1] worked out at 95%. In addition, the “liver toxicity (ALT activities, liver sections assessed by pathologist)” value in data set [10] (mice) is “do not appear to induce significant liver toxicity”. In addition, the “ALT ACTIVITY” value in [10] (plasma of mice at end of treatment period) came to 149.7 ± 140.9 μm/Liter/Min. For the same molecule, the “chemosensitization to cisplatin (percent growth, FIG. 2)” value in [11] is reported as “but not 4-HPR are effective”. Besides, the “chemosensitization to cisplatin (cell survival, MTS)” value in data set [11] (5 μM retinoid, three days, then range of cisplatin concentrations) is on record as “prevented the growth increase”. Moreover, the “Percentage of growth inhibition, OVCAR−3” value is given as 2.7% in data set [2] (1 μM, Table II) and 43.1% in [2] (10 μM, Table III). Besides, the “Percentage of growth inhibition, SKOV−3” value in [6] (1 μM, Table II) turned out to be 7.2%; in [6] (10 μM, Table III), 64.9%.
Regarding `Cc1cc([N+](=O)[O-])ccc1NC(=S)Nc1ccc2c(c1)C(C)(C)CC(C)(C)S2` [heteroarotinoid 16], the “chemosensitization to cisplatin (percent growth, FIG. 2)” value in data set [11] is “effective”. For the same molecule, the “Percentage of growth inhibition, OVCAR−3” value in data set [2] (1 μM, Table II) came out at 10.20%; in data set [2] (10 μM, Table III), 74.05%. Also, the “Percentage of growth inhibition, CAOV−3” value in data set [3] (1 μM, Table II) is 15.33%; in data set [3] (10 μM, Table III), 83.22%. In addition, the “Percentage of growth inhibition, SKOV−3” value in [6] (1 μM, Table II) is reported as −1.67%; in data set [6] (10 μM, Table III) it was 52.81%.
As to `CCOC(=O)c1ccc(NC(=O)Nc2cccc3c2SC(C)(C)CC3(C)C)cc1` [heteroarotinoid 24], in data set [11], the “chemosensitization to cisplatin (percent growth, FIG. 2)” value was “effective”. Also, the “Percentage of growth inhibition, OVCAR−3” value in [2] (1 μM, Table II) is −2.16%; in [2] (10 μM, Table III) it was 26.53%. Besides, the “Percentage of growth inhibition, CAOV−3” value in [3] (1 μM, Table II) is listed as 17.55%; in data set [3] (10 μM, Table III), 53.11%. The “Percentage of growth inhibition, SKOV−3” value in data set [6] (1 μM, Table II) is on record as 1.86%; in data set [6] (10 μM, Table III), 7.98%.
In the case of “trans-retinoic acid [t-RA, reference compound]”, the “Percentage of induction of apoptosis in SW962 vulvar carcinoma cultures” value turned out to be 3% in data set [9] (Days 0); 2.53% in data set [9] (Days 1); 1.25% in data set [9] (Days 3); 4.5% in data set [9] (Days 4); 3.51% in data set [9] (Days 7). The “Percentage of growth inhibition, OVCAR−3” value in [2] (1 μM, Table II) is 6.0%; in [2] (10 μM, Table III) it was −3.0% and 3.0%. Besides, the “Percentage of growth inhibition, SKOV−3” value in [6] (1 μM, Table II) was determined as 8.8%; in data set [6] (10 μM, Table III), 6.0%.
